Experimental data taken from US8461122B2, “Derivatives of morphine-6-glucuronide, preparation method thereof and use of same in therapeutics” (Sanofi, priority 2008, dated 2013).
Read-outs that look alike come from different tables or passages of the source.

Test system: male Swiss mice
Conditions: tail-flick; for ED50 60 min. post-administration: Table 2 (sc); for Duration of action / % MPE max: subcutaneous
Protocol: Tests consisting in measuring the in vivo activity of the compounds of the invention on a nociceptive reflex response were performed. In this approach, the latency of the animal's nociceptive reflex response is measured as a pain indicator.
The analgesic activity was determined by means of the “tail-flick” test in male Swiss mice (Iffa Credo). This test is based on the spontaneous nociceptive reflex of removal of the animal's tail caused by a painful heat stimulus (infrared source). The “tail-flick” test (D'Amour-Smith test, 1941, Pharmacol. Exp. Ther.; 72: 74-79) consists, after administering a product, in placing a mouse's tail at the focal point of the infrared source so as to produce a nociceptive heat stimulus (surface temperature of about 55-60° C.). The mouse's reaction time (RT) (latency between the moment when the light beam is switched on and the moment when the mouse removes its tail) was measured in duplicate at different times ranging from 20 minutes to 120 minutes after administration of the product. The heat intensity is regulated such that this removal reflex is between 0.5 and 3.5 seconds in the control animals, and arbitrarily represents the criterion for minimum analgesia (0%). Two reaction time measurements were taken before administration of the product for each mouse, to establish a baseline measurement time. A maximum time of 8 seconds was chosen as the maximum reaction time so as not to induce tissue damage by burning the animals, and arbitrarily represents the criterion for maximum analgesia (100%). The reaction time is increased by the analgesics relative to a control animal not receiving any treatment. The products were administered subcutaneously and orally at doses of between 1.25 and 30 mg/kg (expressed as salt).
The percentage of analgesic activity (% MPE) is determined by the following formula: % MPE=(RTpost-administration−RTpre-administration)*100/(RTmax−RTpre-administration)

[1] = dose 10 mg/kg (expressed as salt)
[2] = dose 1.25 mg/kg (expressed as salt)

Compound | ED50 60 min. post-administration [mg/kg] | Duration of action (dose 5 mg/kg) | % MPE max (dose 5 mg/kg (expressed as salt)) | Duration of action (dose 10 mg/kg) | % MPE max [1] | Duration of action (dose 1.25 mg/kg) | % MPE max [2] | ED50 at 60 minutes (oral, 60 minutes) | percentage of maximum analgesic activity (% MPE max index) (oral, dose 10 mg/kg) [%]
Morphin-6-yl 5-C-(2-methyl-1,3,4-oxadiazol-5-yl)-α/β-D-xylopyranoside trifluoroacetate [Compound 3] | 3.2 | >120 (5) minutes | 100 (5) % |  |  |  |  |  | 
Cc1nnc(C2O[C@H](O[C@H]3C=C[C@H]4[C@H]5Cc6ccc(O)c7c6[C@@]4(CCN5C)[C@H]3O7)[C@H](O)[C@@H](O)[C@@H]2O)o1.O=C(O)C(F)(F)F (stereo partly drawn) [Compound 4, Morphin-6-yl 5-C-(2-methyl-1,3,4-oxadiazol-5-yl)-α-D-xylopyranoside trifluoroacetate] | 8 |  |  | 90 (10) minutes | 65 (10) % |  |  |  | 
CN1CC[C@]23c4c5ccc(O)c4O[C@H]2[C@@H](O[C@@H]2O[C@H](c4nn[nH]n4)[C@@H](O)[C@H](O)[C@H]2O)C=C[C@H]3[C@H]1C5.O=C(O)C(F)(F)F [Compound 2, Morphin-6-yl 5-C-(tetrazol-5-yl)-β-d-xylopyranoside trifluoroacetate] | <1.25 |  |  |  |  | >120 (1.25) minutes | 100 (1.25) % |  | 
Morphin-6-yl 5-C-(tetrazol-5-yl)-αβ-D-xylopyranoside trifluoroacetate [Compound 1] | 10 |  |  | >120 (10) minutes | 50 (10) % |  |  |  | 
Cc1nnc(C2O[C@@H](O[C@H]3C=C[C@H]4[C@H]5Cc6ccc(O)c7c6[C@@]4(CCN5C)[C@H]3O7)[C@H](O)[C@@H](O)[C@@H]2O)o1.O=C(O)C(F)(F)F (stereo partly drawn) [Compound 5, Morphin-6-yl 5-C-(2-methyl-1,3,4-oxadiazol-5-yl)-β-D-xylopyranoside trifluoroacetate] | <1.25 |  |  |  |  | >120 (1.25) minutes | 100 (1.25) % | less than 2.5 mg/kg | 78
